# Reference: patent US8846570B2, “Herbicidal compositions comprising 4-amino-3-chloro-5-fluoro-6-(4-chloro-2-fluoro-3-methoxyphenyl)pyridine-2-carboxylic acid or a derivative thereof and microtubule inhibiting herbicides” (Dow AgroSciences LLC, priority 2012, dated 2014)
# Key:
# Experiment in all cases: In-water applied, transplanted paddy rice, greenhouse: visual weed control
# Assay type in all cases: in vivo
# Conditions in all cases: 21 DAA
# [1] = system: Echinochloa oryzoides (Ard.) Fritsch (ECHOR)
# Experimental: (§1) Weed seeds or nutlets of the desired test plant species were planted in puddled soil (mud) prepared by mixing a shredded, non-sterilized mineral soil (50.5 percent silt, 25.5 percent clay, and 24 percent sand, with a pH of about 7.6 and an organic matter content of about 2.9 percent) and water at a 1:1 volumetric ratio. The prepared mud was dispensed in 365 mL aliquots into 16-ounce (oz.) non-perforated plastic pots with a surface area of 86.59 square centimeters (cm^2) leaving a headspace of 3 centimeters (cm) in each pot. Mud was allowed to dry overnight prior to planting or transplanting. Rice seeds were planted in Sun Gro MetroMix® 306 planting mixture, which typically has a pH of 6.0 to 6.8 and an organic matter content of about 30 percent, in plastic plug trays. Seedlings at the second or third leaf stage of growth were transplanted into 860 mL of mud contained in 32-oz. non-perforated plastic pots with a surface area of 86.59 cm^2 4 days prior to herbicide application. The paddy was created by filling the headspace of the pots with 2.5 to 3 cm of water. When required to ensure good germination and healthy plants, a fungicide treatment and/or other chemical or physical treatment was applied. The plants were grown for 4-22 days in a greenhouse with an approximate 14 h photoperiod which was maintained at about 29° C. during the day and 26° C. during the night. Nutrients were added as Osmocote® (19:6:12, N:P:K+minor nutrients) at 2 g per 16.-oz. pot and 4 g per 32-oz. pot. Water was added on a regular basis to maintain the paddy flood, and supplemental lighting was provided with overhead metal halide 1000-Watt lamps as necessary. The plants were employed for testing when they reached the first through fourth true leaf stage.
# (§2) Treatments consisted of the acid or esters of 4-amino-3-chloro-5-fluoro-6-(4-chloro-2-fluoro-3-methoxy-phenyl)pyridine-2-carboxylic acid (compound A) each formulated as an SC and various herbicidal components alone and in combination. Forms of compound A were applied on an acid equivalent basis.
# (§3) Treatment requirements for each compound or herbicidal component were calculated based upon the rates being tested, the concentration of active ingredient or acid equivalent in the formulation, an application volume of 2 mL per component per pot, and an application area of 86.59 cm^2 per pot.
# (§4) For formulated compounds, a measured amount was placed in an individual 100 or 200 mL glass vial and was dissolved in a volume of 1.25% (v/v) Agri-Dex® crop oil concentrate to obtain application solutions.
# (§5) For technical grade compounds, a weighed amount was placed in an individual 100 to 200 mL glass vial and was dissolved in a volume of acetone to obtain concentrated stock solutions. […] The concentrated stock solutions obtained were diluted with an equivalent volume of an aqueous mixture containing 2.5% (v/v) crop oil concentrate so that the final application solutions contained 1.25% (v/v) crop oil concentrate.
# (§6) Applications were made by injecting, with a pipetter, appropriate amounts of the application solutions into the aqueous layer of the paddy. Control plants were treated in the same manner with the solvent blank. Applications were made so that all treated plant material received the same concentrations of acetone and crop oil concentrate.
# (§7) The treated plants and control plants were placed in a greenhouse as described above and water was added as needed to maintain a paddy flood. After approximately 3 weeks the condition of the test plants as compared with that of the untreated plants was determined visually and scored on a scale of 0 to 100 percent where 0 corresponds to no injury or growth inhibition and 100 corresponds to complete kill.
# (§8) Colby's equation was used to determine the herbicidal effects expected from the mixtures (Colby, S. R. 1967. Calculation of the synergistic and antagonistic response of herbicide combinations. Weeds 15:20-22.). […]
# [2] = system: Schoenoplectus Maritimes (L.) Lye (SCPMA)
# Experimental: as §1, §2, §3, §4, §5, §6, §7, §8
# [3] = system: Leptochloa chinensis (L.) Nees (LEFCH)
# Experimental: as §1, §2, §3, §4, §5, §6, §7, §8
# [4] = system: Echinochloa crus-galli (L.) Beauv. (ECHCG)
# Experimental: as §1, §2, §3, §4, §5, §6, §7, §8
structure (smiles),measurement,setting,value
"COc1c(Cl)ccc(-c2nc(C(=O)O)c(Cl)c(N)c2F)c1F [Compound A Acid, 4-amino-3-chloro-6-(4-chloro-2-fluoro-3-methoxyphenyl)-5-fluoropyridine-2-carboxylic acid]",Visual Weed Control (%) Obs,[1]; 8.75 g ae/ha,10%
same,Visual Weed Control (%) Obs,[1]; 17.5 g ae/ha,40%
same,Visual Weed Control (%) Obs,[1]; 35 g ae/ha,40%
same,Visual Weed Control (%) Obs,[2]; 8.75 g ae/ha,0%
same,Visual Weed Control (%) Obs,[2]; 17.5 g ae/ha,0%
same,Visual Weed Control (%) Obs,[2]; 35 g ae/ha,0%
same,Visual Weed Control (%) Obs,[3]; 8.75 g ae/ha,0%
same,Visual Weed Control (%) Obs,[3]; 17.5 g ae/ha,0%
same,Visual Weed Control (%) Obs,[3]; 35 g ae/ha,30%
same,Visual Weed Control (%) Obs,[4]; 8.75 g ae/ha,0%
same,Visual Weed Control (%) Obs,[4]; 17.5 g ae/ha,0%
same,Visual Weed Control (%) Obs,[4]; 35 g ae/ha,20%
"COc1c(Cl)ccc(-c2nc(C(=O)OCc3ccccc3)c(Cl)c(N)c2F)c1F [Compound A Benzyl Ester, benzyl ester of 4-amino-3-chloro-5-fluoro-6-(4-chloro-2-fluoro-3-methoxy-phenyl)pyridine-2-carboxylic acid]",Visual Weed Control (%) Obs,[1]; 4.38 g ae/ha,40%
same,Visual Weed Control (%) Obs,[1]; 8.75 g ae/ha,60%
same,Visual Weed Control (%) Obs,[1]; 17.5 g ae/ha,75%
same,Visual Weed Control (%) Obs,[2]; 4.38 g ae/ha,0%
same,Visual Weed Control (%) Obs,[2]; 8.75 g ae/ha,0%
same,Visual Weed Control (%) Obs,[2]; 17.5 g ae/ha,0%
same,Visual Weed Control (%) Obs,[3]; 35 g ae/ha,50%
same,Visual Weed Control (%) Obs,[3]; 70 g ae/ha,50%
same,Visual Weed Control (%) Obs,[4]; 4.38 g ae/ha,0%
same,Visual Weed Control (%) Obs,[4]; 8.75 g ae/ha,0%
same,Visual Weed Control (%) Obs,[4]; 17.5 g ae/ha,25%
"CSC(=O)c1c(C(F)F)nc(C(F)(F)F)c(C(=O)SC)c1CC(C)C [Dithiopyr, S,S′-dimethyl-2-(difluoromethyl)-4-(2-methylpropyl)-6-(trifluoromethyl)-3,5-pyridinedicarbothioate]",Visual Weed Control (%) Obs,[1]; 70 g ai/ha,30%
same,Visual Weed Control (%) Obs,[2]; 70 g ai/ha,0%
"CCC(CC)Nc1c([N+](=O)[O-])cc(C)c(C)c1[N+](=O)[O-] [Pendimethalin, N-(1-ethylpropyl)-3,4-dimethyl-2,6-dinitrobenzenamine, reference compound]",Visual Weed Control (%) Obs,[2]; 560 g ai/ha,0%
same,Visual Weed Control (%) Obs,[3]; 280 g ai/ha,40%
same,Visual Weed Control (%) Obs,[3]; 1120 g ai/ha,48%
same,Visual Weed Control (%) Obs,[4]; 280 g ai/ha,20%
same,Visual Weed Control (%) Obs,[4]; 560 g ai/ha,0%
